Data taken from US20040082550A1, “Tropolone derivative” (priority 2000, published 2004).

What was measured:
[1] = system: promyelocyte leukemia cell strain HL-60; assay: Test for induction of cell differentiation in HL-60 cells (NBT reduction ability); format: cell-based; details: for Ratio of cells for which differentiation was induced by each compound alone (%): calculated from NBT reduction ability; for Ratio of cells for which differentiation was induced by each compound in combination with 1 × 10^−7 M of HX630 (%): in combination with 1×10^−7 M HX630 (retinoid synergist)
Experimental: For each of the compounds of the examples, action for inducing cell differentiation was examined for each alone and in combination with 1×10^−7 M of HX630. According to the methods described in Japanese Patent Unexamined Publication (KOKAI) No. (Sho)61-76440/1986, differentiation of the cells of promyelocyte leukemia cell strain HL-60 into granulocytic series cells was determined based on morphological change and measurement of ability to reduce nitro blue tetrazolium (NBT). The ratios (%) of differentiated cells shown in the following table are those calculated from NBT reduction ability. HX630 is a retinoid synergist that enhances actions of retinoids, and the concentrations of −8, −7 and −6 mean that each compound was added at concentrations of 1×10^−8 M, 1×10^−7 M and 1×10^−6 M, respectively.

[2] = compound concentration -6 (1×10^−6 M)
[3] = compound concentration -7 (1×10^−7 M)
[4] = compound concentration -8 (1×10^−8 M)

Row | SMILES | Ratio of cells for which differentiation was induced by each compound alone (%) ([1]; concentration -6 (1×10^−6 M)) | Ratio of cells for which differentiation was induced by each compound alone (%) ([1]; concentration -7 (1×10^−7 M)) | Ratio of cells for which differentiation was induced by each compound alone (%) ([1]; concentration -8 (1×10^−8 M)) | Ratio of cells for which differentiation was induced by each compound in combination with 1 × 10^−7 M of HX630 (%) [1, 2] | Ratio of cells for which differentiation was induced by each compound in combination with 1 × 10^−7 M of HX630 (%) [1, 3] | Ratio of cells for which differentiation was induced by each compound in combination with 1 × 10^−7 M of HX630 (%) [1, 4] | melting point
1 | CC1(C)CCC(C)(C)c2cc(-c3ccc(O)c(=O)cc3)ccc21 [Tp05] | 13% | 0.5% | 0.6% | 35% | 1.2% | 1.2% | 161 °C
2 | COc1ccc(C(=O)Nc2ccc(O)c(=O)cc2)cc1C12CC3CC(CC(C3)C1)C2 [Tp88] | 46% | 1.2% | 0.9% | 62% | 14% | 2.6% | 142 °C
3 | CC(C)(C)c1cc(N=Nc2ccc(O)c(=O)cc2)cc(C(C)(C)C)c1 [Tp170] | 2.3% | 0.8% | 1.1% | 10% | 2.3% | 0.5% | –
4 | CC1(C)CCC(C)(C)c2cc(-c3cccc(-c4ccc(O)c(=O)cc4)c3)ccc21 [Tp190] | 0% | 32% | 1.6% | 50% | 90% | 77% | –
5 | CC1(C)CCC(C)(C)c2cc(-c3ccc(-c4ccc(O)c(=O)cc4)o3)ccc21 [Tp200] | 36% | 14% | 2% | 50% | 95% | 77% | –
6 | CC1(C)CCC(C)(C)c2cc(-c3ccc(-c4ccc(O)c(=O)cc4)s3)ccc21 [Tp210] | 11% | 6% | 0.8% | 91% | 91% | 64% | –
7 | CC1(C)CCC(C)(C)c2cc3cc(-c4ccc(O)c(=O)cc4)ccc3cc21 [Tp250] | 56% | 66% | 63% | 79% | 84% | 91% | –
8 | CC1(C)CCC(C)(C)c2cc3sc(-c4ccc(O)c(=O)cc4)cc3cc21 [Tp260] | 55% | 20% | 10% | 67% | 83% | 91% | –
